# Activity calls are given as the source filed them. No rule for the calls is given here.
# Tested on: CCRIS mutagenicity, Ames/micronucleus/aberration tests
# Experiment: CCRIS mutagenicity studies
# [1] = Test System: AMES SALMONELLA TYPHIMURIUM, Strain/Indicator: TA98, Metabolic Activation: NONE, Method: STANDARD PLATE
# [2] = Test System: AMES SALMONELLA TYPHIMURIUM, Strain/Indicator: TA100, Metabolic Activation: NONE, Method: STANDARD PLATE
# [3] = Test System: AMES SALMONELLA TYPHIMURIUM, Strain/Indicator: TA1535, Metabolic Activation: NONE, Method: STANDARD PLATE
# [4] = Test System: AMES SALMONELLA TYPHIMURIUM, Strain/Indicator: TA1537, Metabolic Activation: NONE, Method: STANDARD PLATE
# [5] = Test System: AMES SALMONELLA TYPHIMURIUM, Strain/Indicator: TA98, Metabolic Activation: RAT, LIVER, S-9, AROCLOR 1254, Method: STANDARD PLATE
# [6] = Test System: AMES SALMONELLA TYPHIMURIUM, Strain/Indicator: TA1535, Metabolic Activation: RAT, LIVER, S-9, AROCLOR 1254, Method: STANDARD PLATE
# [7] = Test System: AMES SALMONELLA TYPHIMURIUM, Strain/Indicator: TA1537, Metabolic Activation: RAT, LIVER, S-9, AROCLOR 1254, Method: STANDARD PLATE
# [8] = Test System: AMES SALMONELLA TYPHIMURIUM, Strain/Indicator: TA1538, Metabolic Activation: NONE, Method: STANDARD PLATE
# [9] = Test System: AMES SALMONELLA TYPHIMURIUM, Strain/Indicator: TA1538, Metabolic Activation: RAT, LIVER, S-9, AROCLOR 1254, Method: STANDARD PLATE
# [10] = Test System: AMES SALMONELLA TYPHIMURIUM, Strain/Indicator: TA1978, Metabolic Activation: NONE, Method: STANDARD PLATE
# [11] = Test System: AMES SALMONELLA TYPHIMURIUM, Strain/Indicator: TA100, Metabolic Activation: RAT, LIVER, S-9, AROCLOR 1254, Method: STANDARD PLATE
smiles,measurement,setting,value
CC(C)[C@]12CC(=O)[C@H](C)[C@H]1C2,mutagenic call,"Test System: AMES SALMONELLA TYPHIMURIUM, Strain/Indicator: TA98, Metabolic Activation: HAMSTER LIVER S-9, AROCLOR 1254, Method: STANDARD PLATE",inactive; negative
same,mutagenic call,[1],inactive; negative
same,mutagenic call,"Test System: AMES SALMONELLA TYPHIMURIUM, Strain/Indicator: TA98, Metabolic Activation: RAT LIVER S-9, AROCLOR 1254, Method: STANDARD PLATE",inactive; negative
same,mutagenic call,"Test System: AMES SALMONELLA TYPHIMURIUM, Strain/Indicator: TA100, Metabolic Activation: HAMSTER LIVER S-9, AROCLOR 1254, Method: STANDARD PLATE",inactive; negative
same,mutagenic call,[2],inactive; negative
same,mutagenic call,"Test System: AMES SALMONELLA TYPHIMURIUM, Strain/Indicator: TA100, Metabolic Activation: RAT LIVER S-9, AROCLOR 1254, Method: STANDARD PLATE",inactive; negative
same,mutagenic call,"Test System: AMES SALMONELLA TYPHIMURIUM, Strain/Indicator: TA102, Metabolic Activation: HAMSTER LIVER S-9, AROCLOR 1254, Method: STANDARD PLATE",inactive; negative
same,mutagenic call,"Test System: AMES SALMONELLA TYPHIMURIUM, Strain/Indicator: TA102, Metabolic Activation: NONE, Method: STANDARD PLATE",inactive; negative
same,mutagenic call,"Test System: AMES SALMONELLA TYPHIMURIUM, Strain/Indicator: TA102, Metabolic Activation: RAT LIVER S-9, AROCLOR 1254, Method: STANDARD PLATE",inactive; negative
same,mutagenic call,"Test System: AMES SALMONELLA TYPHIMURIUM, Strain/Indicator: TA1535, Metabolic Activation: HAMSTER LIVER S-9, AROCLOR 1254, Method: STANDARD PLATE",inactive; negative
same,mutagenic call,[3],inactive; negative
same,mutagenic call,"Test System: AMES SALMONELLA TYPHIMURIUM, Strain/Indicator: TA1535, Metabolic Activation: RAT LIVER S-9, AROCLOR 1254, Method: STANDARD PLATE",inactive; negative
same,mutagenic call,"Test System: AMES SALMONELLA TYPHIMURIUM, Strain/Indicator: TA1537, Metabolic Activation: HAMSTER LIVER S-9, AROCLOR 1254, Method: STANDARD PLATE",inactive; negative
same,mutagenic call,[4],inactive; negative
same,mutagenic call,"Test System: AMES SALMONELLA TYPHIMURIUM, Strain/Indicator: TA1537, Metabolic Activation: RAT LIVER S-9, AROCLOR 1254, Method: STANDARD PLATE",inactive; negative
same,mutagenic call,"Test System: Mouse lymphoma, Strain/Indicator: L5178Y (tk+/tk-), Metabolic Activation: None, Method: Suspension/plate",inactive; negative
same,mutagenic call,"Test System: Mouse lymphoma, Strain/Indicator: L5178Y (tk+/tk-), Metabolic Activation: Rat, Liver, S-9, Aroclor 1254, Method: Suspension/plate",active; equivocal (previous evaluation positive)
Nc1ccc(O)c2c1C(=O)c1c(O)ccc(N)c1C2=O,mutagenic call,[1],active; positive
same,mutagenic call,[5],active; positive
same,mutagenic call,[3],inactive; negative
same,mutagenic call,[6],inactive; negative
same,mutagenic call,[4],active; positive
same,mutagenic call,[7],active; positive
same,mutagenic call,[8],active; positive
same,mutagenic call,[9],active; positive
same,mutagenic call,[10],inactive; negative
same,mutagenic call,"Test System: AMES SALMONELLA TYPHIMURIUM, Strain/Indicator: TA1978, Metabolic Activation: RAT, LIVER, S-9, AROCLOR 1254, Method: STANDARD PLATE",inactive; negative
O=[N+]([O-])c1cccc(O)c1,mutagenic call,"Test System: AMES SALMONELLA TYPHIMURIUM, Strain/Indicator: TA97, Metabolic Activation: HAMSTER, LIVER, S-9, AROCLOR 1254 (10%), Method: PREINCUBATION",inactive; negative
same,mutagenic call,"Test System: AMES SALMONELLA TYPHIMURIUM, Strain/Indicator: TA97, Metabolic Activation: NONE, Method: PREINCUBATION",inactive; negative
same,mutagenic call,"Test System: AMES SALMONELLA TYPHIMURIUM, Strain/Indicator: TA97, Metabolic Activation: RAT, LIVER, S-9, AROCLOR 1254 (10%), Method: PREINCUBATION",inactive; negative
same,mutagenic call,"Test System: AMES SALMONELLA TYPHIMURIUM, Strain/Indicator: TA98, Metabolic Activation: HAMSTER, LIVER, S-9, AROCLOR 1254 (10%), Method: PREINCUBATION",inactive; negative
same,mutagenic call,"Test System: AMES SALMONELLA TYPHIMURIUM, Strain/Indicator: TA98, Metabolic Activation: RAT, LIVER, S-9, AROCLOR 1254 (10%), Method: PREINCUBATION",inactive; negative
same,mutagenic call,"Test System: AMES SALMONELLA TYPHIMURIUM, Strain/Indicator: TA98, Metabolic Activation: RAT, LIVER, S-9, KANECHLOR 500, Method: PREINCUBATION",active; positive
same,mutagenic call,"Test System: AMES SALMONELLA TYPHIMURIUM, Strain/Indicator: TA98, Method: PREINCUBATION",inactive; negative
same,mutagenic call,"Test System: AMES SALMONELLA TYPHIMURIUM, Strain/Indicator: TA100, Metabolic Activation: HAMSTER, LIVER, S-9, AROCLOR 1254 (10%), Method: PREINCUBATION",inactive; negative
same,mutagenic call,"Test System: AMES SALMONELLA TYPHIMURIUM, Strain/Indicator: TA100, Metabolic Activation: RAT, LIVER, S-9, AROCLOR 1254 (5, 10 OR 30%), Method: PREINCUBATION",inactive; negative
same,mutagenic call,"Test System: AMES SALMONELLA TYPHIMURIUM, Strain/Indicator: TA100, Metabolic Activation: RAT, LIVER, S-9, KANECHLOR 500, Method: PREINCUBATION",active; positive
same,mutagenic call,"Test System: AMES SALMONELLA TYPHIMURIUM, Strain/Indicator: TA100, Method: PREINCUBATION",inactive; negative
same,mutagenic call,"Test System: AMES SALMONELLA TYPHIMURIUM, Strain/Indicator: TA1535, Metabolic Activation: HAMSTER, LIVER, S-9, AROCLOR 1254 (10%), Method: PREINCUBATION",inactive; negative
same,mutagenic call,"Test System: AMES SALMONELLA TYPHIMURIUM, Strain/Indicator: TA1535, Metabolic Activation: NONE, Method: PREINCUBATION",inactive; negative
same,mutagenic call,"Test System: AMES SALMONELLA TYPHIMURIUM, Strain/Indicator: TA1535, Metabolic Activation: RAT, LIVER, S-9, AROCLOR 1254 (10%), Method: PREINCUBATION",inactive; negative
same,mutagenic call,"Test System: AMES SALMONELLA TYPHIMURIUM, Strain/Indicator: TA1535, Method: PREINCUBATION",inactive; negative
same,mutagenic call,"Test System: AMES SALMONELLA TYPHIMURIUM, Strain/Indicator: TA1537, Metabolic Activation: NONE, Method: PREINCUBATION",inactive; negative
same,mutagenic call,"Test System: AMES SALMONELLA TYPHIMURIUM, Strain/Indicator: TA1537, Method: PREINCUBATION",inactive; negative
same,mutagenic call,"Test System: AMES SALMONELLA TYPHIMURIUM, Strain/Indicator: TA1538, Metabolic Activation: NONE, Method: PREINCUBATION",inactive; negative
same,mutagenic call,"Test System: AMES SALMONELLA TYPHIMURIUM, Strain/Indicator: TA1538, Method: PREINCUBATION",inactive; negative
Oc1ccc2c3cc4ccccc4cc3c3ccccc3c2c1O,mutagenic call,"Test System: AMES SALMONELLA TYPHIMURIUM, Strain/Indicator: TA100, Metabolic Activation: RAT, LIVER, S-9, AROCLOR 1254, Method: PREINCUBATION",active; positive
Cc1cc2c(nc(N)n2C)c2ncc(-c3ccccc3)nc12,mutagenic call,[5],active; positive
C=CCn1cc2c3c(cccc31)[C@H]1C=C(CO)CN(C)[C@@H]1C2,mutagenic call,[11],active; positive
COc1c2ccoc2nc2c(OC)c(OCC3OC3(C)C)ccc12 (configuration not stated),mutagenic call,"Test System: AMES SALMONELLA TYPHIMURIUM, Strain/Indicator: TA98, Metabolic Activation: RAT, LIVER, S-9, PHENOBARBITAL, Method: STANDARD PLATE",inactive; negative
same,mutagenic call,"Test System: AMES SALMONELLA TYPHIMURIUM, Strain/Indicator: TA100, Metabolic Activation: RAT, LIVER, S-9, PHENOBARBITAL, Method: STANDARD PLATE",inactive; negative
O=C1c2cccc(S(=O)(=O)O)c2C(=O)c2cccc([N+](=O)[O-])c21,mutagenic call,[1],active; positive
same,mutagenic call,[2],inactive; negative
same,mutagenic call,[11],inactive; negative
same,mutagenic call,[3],inactive; negative
same,mutagenic call,[6],inactive; negative
same,mutagenic call,[4],inactive; negative
same,mutagenic call,[7],inactive; negative
same,mutagenic call,[8],active; positive
same,mutagenic call,[10],inactive; negative
CCN(CC)c1ccc(-c2ccccc2)c(-c2ccccc2)c1N(CC)CC,mutagenic call,[8],active; positive
same,mutagenic call,[9],active; positive
